Patent US7671039B2 (Glucan Corporation, priority 2004, dated 2010)
Marks after values point to notes of the source that are not given here.

Tests used:
[1] = test system: ddY female mice with ovary extraction; experiment: Weight of bone of both thighs in ovary-extracted mice; assay type: in vivo; settings: wet weight, FOSA group: Fosamax 10 mg/kg oral, 4 weeks
Experimental: After sacrifice, a weight of bone of both thighs is calculated with g unit. To reduce an error arising from a difference of individual body weight, a weight of bone is calculated with relative weight as following equation. Weight of bone=[(absolute weight of bone/body weight at sacrifice)×100]

[2] = test system: ddY female mice with ovary extraction; experiment: Histological indices of trabecular and cortical bone of thigh in ovary-extracted mice; assay type: in vivo; settings: FOSA group: Fosamax 10 mg/kg oral, 4 weeks
Source text: (§1) For histological analysis of experimental animals, the left thigh of each mouse is separated to fix in 10% neutral buffer formalin (NBF) solution, and then delimed during 5 days at delime solution [24.4% formic acid, […]] (the mixed delime solution is exchanged each day one times during 3 days). And then it is fixed to paraffin and then made fraction ([…]) and dyed with hematoxylineosin.
Body weight, weight of both thigh, histological change including trabecular bone volume (TBV) % and Cortical bone thickness (Cbt) is analyzed. Also, histomorphometric changes of the trochoid bone of left thigh are observed. All experimental result of followings are shown with means±standard deviation. A statistical analysis is carried out by using SPSS For Windows (Release 6.1.3., SPSS Inc, USA) and Mann-Whitney U-Wilcoxon Rank Sum W test(M-W test).
TBV is calculated by using a Auto Image analysis (analySIS Image Processing; SIS, Germany) under 100 magnifications on a microscope (Zeiss, Germany) for regular size of trabecular bone at the trochoid bone of […] (excluding a growth plate). TBV is calculated with (%) unit.
A trabecular bone thickness (Tbt), a number of trabecular bone (Tbn), and a trabecular bone length (Tbl) are calculated by using a Auto Image analysis (analySIS Image Processing; SIS, Germany) under 100 magnifications on a microscope (Zeiss, Germany) for regular size at the trochoid bone of left thigh (excluding a growth plate). Tbt and Tbl are calculated with μm unit, and Tbn is calculated with a number of trabecular bone/all section of the trochoid bone section. Tbt and Tbl is calculated at trabecular bone that is most developed in a regular size of the trochoid bone section.
Cbt is measured at the trochlea neck of thigh and calculated by using a Auto Image analysis (analySIS Image Processing; SIS, Genmany) under 200 magnifications on a microscope (Zeiss, Germany) at prepared histological sample.

[3] = test system: ddY female mice with ovary extraction; experiment: Histomorphometric changes of left thigh, Hematoxylin-Eosin dyeing; assay type: in vivo
Experimental: as §1
A histomorphometric change of left thigh is analyzed by dyeing with Hematoxylin-Eosin.

[4] = FOSA group: Fosamax 10 mg/kg oral; I: body weight after sacrifice − after administration
Experimental: 25 ddY female mice (age of 6 weeks, SLC, Japan) are used after adaptation during 7 days. The above animals are grouped each 5 and bred in a cage made of polycarbonate under the condition of temperature of 20˜25° C. and humidity of 30˜35%. A cycle of light and darkness is controlled to 12 hours: 12 hours. Feed stuff (Samyang Co., Korea) and water is fed freely. For 20 mice, the both ovary is taken out (ovary extraction : disclosing the both ovary, and then removing all of the both ovary, and then suturing with the same method), and for 5 mice, only sham surgical operation is carried out (sham surgical operation disclosing the both ovary by cutting (3 cm) a skin and an abdominal muscle, and then closing using a skin suturing technique). For the purpose of therapeutic research, a treatment is started after 4 weeks of the ovary extraction, each sample is administrated during 4 weeks.
All sample is stored at a refrigerate (−10° C.) to prevent from a moisture and light. […]
Change of body weight and increasing part is calculated after immediately surgical operation, after 4 weeks of surgical operation, after administration, and each week one times during experiment period. […] Also, an increasing part of body weight during adapting period (Increasing part I) and administrating period (Increasing part II) is calculated as followings. […]

NCCCC(O)(P(=O)(O)O)P(=O)(O)O [FOSA, sodium alendronate]
Absolute weight of bone [1]: 0.075 ± 0.006 g | Tbn number of trabecular bone ([2]; control 3.40 ± 1.14): 15.20 ± 2.77 | Tbt(μm) trabecular bone thickness ([2]; control 66.40 ± 11.70): 93.60 ± 9.56 μm | Cbt(μm) Cortical bone thickness ([2]; control 99.20 ± 20.46): 102.50 ± 22.29 μm | Tbl(μm) trabecular bone length ([2]; control 524.40 ± 176.78): 759.40 ± 89.17*^,## μm | TBV (%) trabecular bone volume ([2]; n = 5, control 20.23 ± 1.72, sham 47.31 ± 5.95): 35.13 ± 4.28% | histomorphometric changes of trabecular bone of left thigh (FIG. 3) ([3]; Fosamax and beta-glucan groups compared with control group, width or number lower than sham group): many an extended trabecular bone | histomorphometric changes of cortical bone of left thigh (FIG. 4) ([3]; Fosamax group, 10 mg/kg oral, 4 weeks): Some increased or similar width and histomorphometric property comparing with control group | Increasing part II of body weight [4]: 3.26 ± 2.73
